One data set concerns human red blood cells. The settings on record: 3.3M (30%) glycerol; over a 2-3 log range in cooling rates; cited from earlier work.
For a further data set, the system named is human spermatozoa. In words: Cytotoxicity of bound cholesterol on semen in culture (motility evaluations). In kind it is cell-based. The settings on record: culture plates coated with 100 µl sterol solution; 1, 2, 4 and 8 hours of incubation. On the procedure: In this experiment, liquefied semen samples were exposed to culture plates that had been coated with 100 µl of the sterol solution.

SMILES strings stand for the structures.

The values that follow come from patent US10271543B2, “Systems and methods for cryopreservation of cells” (Cook General Biotechnology LLC, priority 2006, dated 2019).

`OCC(O)CO` [glycerol]: in the data set on human red blood cells, the survival entry is “around 90%”.

For the molecule `CC(C)CCC[C@@H](C)[C@H]1CC[C@H]2[C@@H]3CC=C4C[C@@H](O)CC[C@]4(C)[C@H]3CC[C@]12C` [bound cholesterol, cholesterol], the “cytotoxic effect (motility evaluations)” value in the data set with human spermatozoa was “no significant cytotoxic effect”.
